Measurements published in patent US9326513B2, “Fungicidal compositions” (Syngenta Participations AG, priority 2011, dated 2016).

Assays:
Format in all cases: in vivo
Details in all cases: foliar, compared to untreated control leaf disks, read-out: disease control
[1] = test system: Blumeria graminis f. sp. tritici (Erysiphe graminis f. sp. tritici); test: Blumeria graminis f. sp. tritici / wheat / leaf disc preventative (powdery mildew on wheat)
Protocol: Blumeria graminis f. sp. tritici (Erysiphe graminis f. sp. tritici)/Wheat/Leaf Disc Preventative (Powdery Mildew on Wheat)
Wheat leaf segments cv. Kanzler were placed on agar in a multiwell plate (24-well format) and sprayed with the formulated test compound diluted in water. The leaf disks were inoculated by shaking powdery mildew infected plants above the test plates 1 day after application. The inoculated leaf disks were incubated at 20° C. and 60% rh under a light regime of 24 h darkness followed by 12 h light/12 h darkness in a climate chamber and the activity of a compound was assessed as percent disease control compared to untreated when an appropriate level of disease damage appears on untreated check leaf segments (6-8 days after application).
The following compounds gave at 200 ppm give at least 50% disease control in this test when compared to untreated control leaf disks under the same conditions, which show extensive disease development: […]

[2] = test system: Puccinia recondita f. sp. tritici; test: Puccinia recondita f. sp. tritici / wheat / leaf disc preventative (brown rust)
Text: Puccinia recondita f. sp. tritici/Wheat/Leaf Disc Preventative (Brown Rust) Wheat leaf segments cv. Kanzler were placed on agar in multiwell plates (24-well format) and sprayed with the formulated test compound diluted in water. The leaf disks were inoculated with a spore suspension of the fungus 1 day after application.

[3] = test system: Puccinia recondita f. sp. tritici; test: Puccinia recondita f. sp. tritici / wheat / leaf disc curative (brown rust)
Protocol: Puccinia recondita f. sp. tritici/Wheat/Leaf Disc Curative (Brown Rust) Wheat leaf segments cv. Kanzler are placed on agar in multiwell plates (24-well format). The leaf segments are inoculated with a spore suspension of the fungus. Plates were stored in darkness at 19° C. and 75% rh. The formulated test compound diluted in water was applied 1 day after inoculation.

Row | SMILES | pest or weed control at 200 ppm [1] [%] | pest or weed control at 200 ppm [2] [%] | pest or weed control at 200 ppm [3] [%]
1 | CCN(C)/C=N/c1cc(Br)c(OCc2cc(-c3ccc(F)cc3)ns2)nc1C [Q.123] | ≥ 50 | ≥ 50 | ≥ 50
2 | CCN(C)/C=N/c1cc(Br)c(OCc2ccccc2OC)nc1C [Q.330] | ≥ 50 | ≥ 50 | ≥ 50
3 | CCN(C)/C=N/c1cc(Br)c(OCc2ccc(Cl)c(Cl)c2)nc1C [Q.064] | ≥ 50 | ≥ 50 | ≥ 50
4 | CCN(C)/C=N/c1cc(Br)c(OCC(F)F)nc1C [Q.383] | ≥ 50 | ≥ 50 | ≥ 50
5 | CCN(C)/C=N/c1cc(Br)c(OC2Cc3ccc(-c4ccccc4)cc3C2)nc1C (centres unmarked) [Q.142] | ≥ 50 | ≥ 50 | 
6 | CCN(C)/C=N/c1cc(Br)c(OCc2snc(-c3ccccc3)c2C#N)nc1C [Q.210] |  | ≥ 50 | 
7 | CCN(/C=N/c1cc(Br)c(OC(C)c2cc(F)cc(F)c2)nc1C)CC (centres unmarked) [Q.187] | ≥ 50 | ≥ 50 | 
8 | CCN(C)/C=N/c1cc(Br)c(OC(C)c2cc(Cl)cc(Cl)c2)nc1C (centres unmarked) [Q.205] | ≥ 50 | ≥ 50 | ≥ 50
9 | CN/C=N/c1cc(Br)c(OCCCC(C)C)nc1C [Q.003] |  | ≥ 50 | 
10 | CCN(C)/C=N/c1cc(Br)c(OCc2ccc3cccnc3c2)nc1C [Q.351] | ≥ 50 | ≥ 50 | ≥ 50
11 | CCN(C)/C=N/c1cc(Br)c(OCCCC=C(C)C)nc1C [Q.118] | ≥ 50 | ≥ 50 | ≥ 50
12 | CCN(C)/C=N/c1cc(-c2ccsc2)c(OC(C)c2cc(F)cc(F)c2)nc1C (centres unmarked) [Q.265] | ≥ 50 | ≥ 50 | ≥ 50
13 | CCN(C)/C=N/c1cc(Br)c(OCC[Si](CC)(CC)CC)nc1C [Q.274] | ≥ 50 | ≥ 50 | ≥ 50
14 | CCN(C)/C=N/c1cc(Br)c(OC(C)c2ccccc2CCc2ccccc2)nc1C (centres unmarked) [Q.314] |  | ≥ 50 | 
15 | CCN(C)/C=N/c1cc(Br)c(OCc2ccccc2CCc2ccccc2)nc1C [Q.309] | ≥ 50 | ≥ 50 | ≥ 50
16 | CCN(C)/C=N/c1cc(Br)c(OCCCC(O)COC)nc1C (centres unmarked) [Q.036] | ≥ 50 | ≥ 50 | ≥ 50
17 | CCN(C)/C=N/c1cc(Br)c(OC2CCCc3ccc(F)cc32)nc1C (centres unmarked) [Q.048] | ≥ 50 | ≥ 50 | ≥ 50
18 | Cc1cc(C)cc(C(C)Oc2ccc(/N=C/N(C)C(C)C)c(C)n2)c1 (centres unmarked) [Q.360] | ≥ 50 | ≥ 50 | ≥ 50
19 | Cc1cc(C)cc(COc2ccc(/N=C/N(C)C(C)C)c(C)n2)c1 [Q.297] | ≥ 50 | ≥ 50 | ≥ 50
20 | CCN(C)/C=N/c1cc(Br)c(OCc2cc(-c3ccccc3)ns2)nc1C [Q.107] |  | ≥ 50 | 
21 | CCN(C)/C=N/c1cc(Br)c(OCCCC2CCCCC2)nc1C [Q.017] | ≥ 50 | ≥ 50 | 

Row | SMILES | pest or weed control at 200 ppm [1] [%] | pest or weed control at 200 ppm [2] [%] | pest or weed control at 200 ppm [3] [%]
22 | CCN(C)/C=N/c1cc(Br)c(OC2Cc3cc(Br)c(Br)cc3C2)nc1C [Q.030] | ≥ 50 | ≥ 50 | ≥ 50
23 | CCN(C)/C=N/c1cc(Br)c(OCc2ccc(C)nc2)nc1C [Q.130] | ≥ 50 | ≥ 50 | ≥ 50
24 | CCCCCCCCCCOc1nc(C)c(/N=C/N(C)CC)cc1C [Q.058] | ≥ 50 | ≥ 50 | ≥ 50
25 | C#CC(C)Oc1nc(C)c(/N=C/N(C)CC)cc1Br (centres unmarked) [Q.080] | ≥ 50 | ≥ 50 | ≥ 50
26 | CCN(C)/C=N/c1cc(Br)c(OC2CCCC3CCCCC32)nc1C (centres unmarked) [Q.049] | ≥ 50 | ≥ 50 | ≥ 50
27 | Cc1nc(OCCCC(C)C)c(Br)cc1/N=C/NC(C)(C)C [Q.009] |  | ≥ 50 | 
28 | CCN(C)/C=N/c1cc([Si](C)(C)C)c(OCc2ccccc2C)nc1C [Q.257] |  | ≥ 50 | ≥ 50
29 | C#CC(C)N(C)/C=N/c1cc(Br)c(OC(C)c2cc(F)cc(F)c2)nc1C (centres unmarked) [Q.190] |  | ≥ 50 | 
30 | C#CCN(C)/C=N/c1cc(Br)c(OC(C)c2cc(F)cc(F)c2)nc1C (centres unmarked) [Q.189] |  | ≥ 50 | 
31 | CCN(C)/C=N/c1cc(Br)c(OC(C)c2cccc(C#Cc3ccccc3)c2)nc1C (centres unmarked) [Q.312] | ≥ 50 | ≥ 50 | 
32 | CCCC(CCC)Oc1nc(C)c(/N=C/N(C)CC)cc1Br [Q.150] |  | ≥ 50 | 
33 | CCN(C)/C=N/c1cc(Br)c(OCc2snc(-c3ccc(F)cc3)c2C#N)nc1C [Q.157] |  | ≥ 50 | 
34 | CCN(C)/C=N/c1ccc(O[C@H]2CC[C@H](C(C)C)CC2)nc1C [Q.182] |  | ≥ 50 | ≥ 50
35 | CCN(C)/C=N/c1cc(Br)c(OC(CC(C)C)CC(C)C)nc1C [Q.234] |  | ≥ 50 | 
36 | CCCc1ccc(-c2cc(/N=C/N(C)CC)c(C)nc2OC(C)c2cc(F)cc(F)c2)cc1 (centres unmarked) [Q.267] | ≥ 50 | ≥ 50 | 
37 | CCN(C)/C=N/c1cc(Br)c(OC2C=C(C)CCC2)nc1C (centres unmarked) [Q.173] |  | ≥ 50 | 
38 | CCN(C)/C=N/c1cc(Br)c(OC(C)(C)c2ccccc2)nc1C [Q.279] |  | ≥ 50 | ≥ 50
39 | CCN(C)/C=N/c1cc(Br)c(OCc2snc(-c3ccccc3)c2Br)nc1C [Q.108] | ≥ 50 | ≥ 50 | 
40 | CCC[Si](CCC)(CCC)c1cc(/N=C/N(C)CC)c(C)nc1OCc1ccccc1C [Q.259] |  | ≥ 50 | 
41 | CCN(C)/C=N/c1ccc(OCc2cc(OC)cc(OC)c2)nc1C [Q.372] |  | ≥ 50 | ≥ 50
42 | CCN(C)/C=N/c1cc(-c2cccnc2)c(OC(C)c2cc(F)cc(F)c2)nc1C (centres unmarked) [Q.266] |  | ≥ 50 | 

Row | SMILES | pest or weed control at 200 ppm [1] [%] | pest or weed control at 200 ppm [2] [%] | pest or weed control at 200 ppm [3] [%]
43 | Cc1nc(OCCCC(C)C)c(Br)cc1/N=C/NC(C)C [Q.008] |  | ≥ 50 | 
44 | CCN(C)/C=N/c1cc([Si](CC)(CC)CC)c(OCc2ccccc2C)nc1C [Q.258] |  | ≥ 50 | ≥ 50
45 | CCN(C)/C=N/c1cc(Br)c(OCCOCOC)nc1C [Q.061] |  | ≥ 50 | 
46 | CCN(C)/C=N/c1cc(C(C)C)c(OC2CCC(C(C)C)CC2)nc1C (centres unmarked) [Q.343] | ≥ 50 | ≥ 50 | 
47 | CCN(C)/C=N/c1cc(Br)c(OCc2cccc(N)c2)nc1C [Q.328] |  | ≥ 50 | 
48 | CC#Cc1cc(/N=C/N(C)CC)c(C)nc1OC1CCC(C(C)C)CC1 (centres unmarked) [Q.254] |  | ≥ 50 | ≥ 50
49 | CCN(C)/C=N/c1cc(Br)c(OCc2ccc(Cl)cc2Cl)nc1C [Q.096] |  | ≥ 50 | ≥ 50
50 | CCN(C)/C=N/c1cc(Br)c(OC(C)C[Si](C)(C)C)nc1C (centres unmarked) [Q.272] | ≥ 50 | ≥ 50 | 
51 | CCN(C)/C=N/c1cc(Br)c(O[C@H]2CC[C@H](C(C)C)CC2)nc1C [Q.268] |  | ≥ 50 | 
52 | CCN(C)/C=N/c1cc(Br)c(OC2CCNCC2)nc1C [Q.159] |  | ≥ 50 | ≥ 50
53 | CCC(Oc1ccc(/N=C/N(C)C(C)C)c(C)n1)c1ccccc1 (centres unmarked) [Q.348] |  | ≥ 50 | ≥ 50
54 | CCN(C)/C=N/c1cc(Br)c(OC2CCCc3ccccc32)nc1C (centres unmarked) [Q.138] |  | ≥ 50 | 
55 | CCN(C)/C=N/c1cc(Br)c(OCCO)nc1C [Q.056] |  | ≥ 50 | 
56 | Cc1nc(OC(C)c2cc(F)cc(F)c2)c(Br)cc1/N=C/N1CC=CC1 (centres unmarked) [Q.194] |  | ≥ 50 | ≥ 50
57 | CCN(C)/C=N/c1cc(Br)c(OC)nc1C [Q.387] |  | ≥ 50 | 
58 | Cc1cc(C)cc(CC(C)Oc2ccc(/N=C/N(C)C(C)C)c(C)n2)c1 (centres unmarked) [Q.362] |  | ≥ 50 | ≥ 50
59 | CCN(C)/C=N/c1cc(Br)c(O)nc1C [Q.379] |  | ≥ 50 | 
60 | CCN(C)/C=N/c1cc(-c2ccc(F)cc2)c(OC(C)c2cc(F)cc(F)c2)nc1C (centres unmarked) [Q.264] |  | ≥ 50 | 
61 | CCN(C)/C=N/c1cc(Br)c(OC2CC(C)CCC2C(C)C)nc1C (centres unmarked) [Q.083] |  | ≥ 50 | 
62 | CCN(C)/C=N/c1cc(Br)c(OC(C)c2ccccc2C#Cc2ccccc2)nc1C (centres unmarked) [Q.313] |  | ≥ 50 | 
